{"source": "the NIST ThermoML archive (doi:10.1007/s10765-008-0511-0)", "note": "Numbers after ± are expanded uncertainties."}
{"settings": "Crystal; Heating/Cooling curves", "units": {"Triple point temperature": "K"}}
{"smiles": "[N-]=[N+]=O", "note": "[nitrous oxide]", "Triple point temperature": "181.99 ± 1"}
{"smiles": "FC(F)F", "note": "[trifluoromethane]", "Triple point temperature": "118.02 ± 1"}
{"smiles": "O=C=O", "note": "[carbon dioxide]", "Triple point temperature": "216.52 ± 1"}
